Reference: US11891386B2, “Indole compounds and their use” (ARIAGEN, INC., priority 2017, dated 2024)
Like-named read-outs stand apart in the source and are kept apart here.

Legend:
mouse hepatocytes = experiment: Hepatocyte intrinsic clearance assay, mouse hepatocytes; assay type: in vitro ADME; settings: for CLint (μL/min/10^6 ells) / EH (%) hepatic extraction ratio: Mouse Hepatocytes; for CLint (μL/min/10^6 ells): 1 μM test compound; for EH (%) hepatic extraction ratio: well stirred liver model, fu=1
From the text: (§1) The liver is an important organ in the body for drug metabolism. This Example describes hepatocyte intrinsic clearance assays using both human and mouse hepatocytes to evaluate the metabolic stability of the indole compounds disclosed herein. The parameters measured include t1/2 (half-life), CLint (intrinsic clearance), and EH (hepatic extraction ratio).
(§2) Testosterone (Lot FE111011-01) was obtained from Cerilliant (Round Rock, TX). 7-hydroxycoumarin (Lot 11631ED) was obtained from Sigma Aldrich (St. Louis, MO). Cryopreserved human hepatocytes pooled from ten donor males (X008001), cryopreserved male IRC/CD-1 mouse hepatocytes (M005052), INVITROGRO HI Medium (incubation), and INVITROGRO HT Medium (thawing) were obtained from Bioreclamation IVT (Baltimore, MD). All solvents were obtained from commercial sources and used without further purification.
(§3) Each test compound was prepared as a 1 mM stock solution in DMSO. A 2 μM solution of test compound and positive controls were prepared in INVITROGRO HI Medium (incubation). These solutions were pre-warmed in a sterile incubator set to maintain 37° C., 5% CO2, and 98% humidity. Cryopreserved hepatocytes were prepared at a concentration of 2×10^6 living cells/mL in incubation media and pre-warmed in the incubator. The compound solutions and hepatocyte mixtures were then combined at a ratio of 1:1 (v:v). The final volume of the reaction mixture was 750 μL, containing 1 μM test compound (10 μM for 7-hydroxycoumarin) and […]. The reaction mixture was placed in the incubator on a plate shaker. After 0, 15, 30, 60, 90, and 120 minutes of incubation, 100 μL of reaction mixtures were removed from the incubation plate and mixed with 150 μL of ice-cold acetonitrile in a designated well of a 96-well crash plate. The 96-well crash plate was placed on ice for 15 min, and samples were centrifuged (3,600 RPM, 10 min, 4° C.) to precipitate protein. The supernatants were diluted 1:1 (v:v) with water containing 0.15 μM verapamil and/or 1 μM tolbutamide (internal standards for positive and negative modes, respectively) in a 96-well shallow injection plate. This plate was sealed for LC-MS analysis. All measurements were done in duplicate.
(§4) The residual compound remaining (% R) was determined from LC-MS peak areas by comparison to the zero time point. Metabolic half-life (t1/2) and intrinsic clearance (CLint) values were calculated from the slope of the plot of ln (% R) vs. time and the concentration of hepatocytes present in the incubation. Percent remaining at 60 minutes was calculated by plugging in the 60 minute value into the slope equation generated by the percent remaining time points.
(§5) In vivo hepatic clearance CLH was calculated using the well stirred liver model according to the following equation:
(§6) [formula] where QH is the total liver blood flow, fu is unbound fraction of the drug, and CL′int is defined as follows: CL′int=CLint×(10^6 cells/g of liver weight)×(g liver weight/kg of body weight). In the first approximation, used in this study, fu=1.
(§7) Hepatic extraction ratio EH was calculated using the following equation:
(§8) [formula] Corresponding physiological parameters used in calculations for all species are shown below in Table 5.

[1] = as above; assay type: in vitro ADME; settings: male, IRC/CD-1, cryopreserved mouse hepatocytes; Mouse Hepatocytes, 1 μM test compound
From the text: as §1, §2, §3, §4, §5, §6, §7, §8

[2] = Hepatocyte intrinsic clearance assay, human hepatocytes; assay type: in vitro ADME; settings: male, cryopreserved pooled human hepatocytes; Human Hepatocytes, 1 μM test compound
From the text: as §1, §2, §3, §4, §5, §6, §7, §8

[3] = tested on: EMT-6 syngeneic mouse tumor model (breast cancer); experiment: Anti-tumor activity, EMT-6 syngeneic mouse tumor model; assay type: in vivo; settings: for inhibition in vivo at 40 mg/kg: Mus musculus, EMT6, ip, read-out: TGI (tumor growth inhibition)
Experimental: This example describes in vivo studies that evaluated the anti-cancer efficacy of the disclosed indole compounds in syngeneic mouse tumor models. Mice implanted subcutaneously with four types of cancer cells were treated with test indole compounds or vehicle controls as described below.
A monolayer culture of tumor cells was maintained in vitro in DMEM or RPMI1640 medium supplemented with 10% fetal bovine serum at 37° C. in an atmosphere of 5% CO2. Cells in exponential growth phase were harvested and quantitated by cell counter before tumor inoculation. The cell lines used are described in the table below.
Four subcutaneous syngeneic mouse tumor models were generated by innoculating female BALB/C or C57BL/6 mice with cancer cells at their right lower or front flank as detailed in the table below:
Each mouse was inoculated subcutaneously with tumor cells in 0.1 mL of PBS. Treatments were started when the mean tumor size reached approximately 80-120 mm^3 (around 100 mm^3). The administration of the indole compounds and the animal number in each study group are shown in the study design. The date of tumor cell inoculation was denoted as day 0.
The indole compounds were dissolved in DMSO at the final concentration of 26.7 mg/ml and stored at room temperature.
Randomization of animals was started when the mean tumor size reached approximately 90 mm^3 to form the mouse study groups. The randomization was performed based on “Matched distribution” method using the multi-task method (StudyDirector™ software, version 3.1.399.19)/randomized block design. The mouse groups (ten in each group) were treated with vehicle (DMSO) or the indole compounds at a dose of 40 mg/kg by i.p. injection, QD for 28 days or longer.
After tumor cell inoculation, the mice were checked daily for morbidity and mortality. During routine monitoring, the mice were checked for tumor growth and any effects of the treatment on behavior such as mobility, food and water consumption, body weight gain/loss (body weights were measured twice per week after randomization), eye/hair matting, and any other abnormalities. Mortality and observed clinical signs were recorded for individual mice in detail.
Tumor volumes were measured twice per week in two dimensions using a caliper, and the volume was expressed in mm^3 using the formula: V=(L×W×W)/2, where V is tumor volume, L is tumor length (the longest tumor dimension) and W is tumor width (the longest tumor dimension perpendicular to L). Dosing as well as tumor and body weight measurements was conducted in a Laminar Flow Cabinet. The body weights and tumor volumes were measured by using StudyDirector™ software (version 3.1.399.19). Dosing Holiday
Tumor growth inhibition percentage (TGI %) is an indicator for antitumor activity of a drug compound, and expressed as: TGI (%)=100×(1−T/C), where T and C are the mean tumor volume (or weight) of the treated and control groups, respectively, on a given day. Statistical analysis of the difference in mean tumor volume (MTV) among the groups was conducted using the data collected on the day when the MTV of the vehicle group reached the humane endpoints, so that TGI could be derived for all or most mice enrolled in the study.
In Studies 1 and 3, the anti-tumor activity of ARI-001 in parallel with ARI-002 at 160 mg/kg (mpk), and the anti-tumor activity of ARI-087 in parallel with ARI-002 at 40 mpk were assessed using the EMT-6, Pan02, A20, and LL/2 models. Because EMT-6 provides a fast-growing model that enables relatively quick differentiation of performance between compounds, this syngeneic mouse tumor model was chosen for the other studies. In Study 2, the anti-tumor activity of ARI-002 was compared with that of ARI-004 at 10, 40, and 80 mpk. In Study 4, the anti-tumor activity of ARI-087 was compared with that of ARI-140. In Study 5, the anti-tumor activity of ARI-087 was evaluated in parallel with ARI-143 and ARI-149 at 40 mpk. […]

[4] = 720 h, Study 5, EMT-6, 40 mpk i.p. QD, D30

Compound | CLint (μL/min/10^6 ells) (mouse hepatocytes) | EH (%) hepatic extraction ratio (mouse hepatocytes) [%] | half-life at 1 μM [1] [min] | half-life at 1 μM [2] [min] | anti-tumor potency, in words ([3]; EMT-6 model, 40 mpk) | inhibition in vivo at 40 mg/kg ([3]; 624 h, Study 6, EMT-6, 40 mpk i.p. QD, D26) [%] | inhibition in vivo at 40 mg/kg [3, 4] [%] | inhibition in vivo at 40 mg/kg ([3]; 648 h, Study 3, EMT-6, 40 mpk i.p. QD, D27) [%] | EH lower as compared to ARI-002, in words (mouse hepatocytes; mouse hepatocytes) | times lower clearance as compared to ARI-002 (mouse hepatocytes; mouse hepatocytes) [times] | tumor growth and survival, in words ([3]; EMT-6 model, 40 mpk) | complete tumor regression (CR) ([3]; EMT-6 model, Study 5, by day 51) | clearance / metabolic profile, in words (mouse hepatocytes; mouse hepatocytes)
Cc1nnc(-c2csc(C(=O)c3c[nH]c4ccccc34)n2)o1 [ARI-060, (1H-indol-3-yl)(4-(5-methyl-1,3,4-oxadiazol-2-yl)thiazol-2-yl)methanone] | 5.0 | 23 | 138 | 273 |  |  |  |  |  |  |  |  | 
O=C(c1nc(-c2nnco2)cs1)c1c[nH]c2ccccc12 [ARI-056, (4-(1,3,4-oxadiazol-2-yl)thiazol-2-yl)(1H-indol-3-yl)methanone] | 25.8 | 60 | 26.8 | 39.2 | less anti-tumor potency than ARI-087 | 34.3 |  |  |  |  |  |  | 
NCc1nnc(-c2csc(C(=O)c3c[nH]c4c(F)cccc34)n2)o1 [ARI-145, (4-(5-(aminomethyl)-1,3,4-oxadiazol-2-yl)thiazol-2-yl)(7-fluoro-1H-indol-3-yl)methanone] | 5.1 | 23 | 136 | 170 | less anti-tumor potency than ARI-087 |  | 10.5 |  |  |  |  |  | 
CCC(=O)c1csc(C(=O)c2c[nH]c3cc(F)c(F)cc23)n1 [ARI-149, 1-(2-(5,6-difluoro-1H-indole-3-carbonyl)thiazol-4-yl)propan-1-one] | 2.9 | 15 | 238 | 132 |  |  | 42.7 |  |  |  |  |  | 
Cc1nc(-c2csc(C(=O)c3c[nH]c4ccccc34)n2)no1 [ARI-030, (1H-indol-3-yl)(4-(5-methyl-1,2,4-oxadiazol-3-yl)thiazol-2-yl)methanone] | 40.5 | 70 | 17.1 | 379 |  |  |  | 21.9 |  |  |  |  | 
CCC(=O)c1csc(C(=O)c2c[nH]c3cc(F)ccc23)n1 [ARI-143, 1-(2-(6-fluoro-1H-indole-3-carbonyl)thiazol-4-yl)propan-1-one] | 2.3 | 12 | 306 | 154 | most potent ketone derivative |  | 65.9 |  | eight times lower | 418 | delay tumor growth and prolong survival | 2 out of 10 | 
COC(=O)c1csc(C(=O)c2c[nH]c3ccc(F)cc23)n1 [ARI-066, methyl 2-(5-fluoro-1H-indole-3-carbonyl)thiazole-4-carboxylate] | 51.9 | 75 | 13.4 | 7 |  |  |  |  |  |  |  |  | 
Cc1noc(-c2csc(C(=O)c3c[nH]c4ccccc34)n2)n1 [ARI-031, (1H-indol-3-yl)(4-(3-methyl-1,2,4-oxadiazol-5-yl)thiazol-2-yl)methanone] | 1.0 | 6 | 703 | 968 |  |  |  |  |  |  |  |  | low clearance
CCC(=O)c1csc(C(=O)c2c[nH]c3ccc(Cl)cc23)n1 [ARI-067, 1-(2-(5-chloro-1H-indole-3-carbonyl)thiazol-4-yl)propan-1-one] | 3.3 | 16 | 212 | 300 |  |  |  |  |  |  |  |  | 
CCC(=O)c1csc(C(=O)c2c[nH]c3cccc(F)c23)n1 [ARI-142, 1-(2-(4-fluoro-1H-indole-3-carbonyl)thiazol-4-yl)propan-1-one] | 11 | 38 | 66 | 86 |  |  |  |  |  |  |  |  | 
CNC(=O)c1csc(C(=O)c2c[nH]c3ccc(Cl)cc23)n1 [ARI-049, 2-(5-chloro-1H-indole-3-carbonyl)-N-methylthiazole-4-carboxamide] | 7.3 | 30 | 95.2 | 233 |  |  |  |  |  |  |  |  | lower clearance and EH value
COC(=O)c1csc(C(=O)c2c[nH]c3ccc(Cl)cc23)n1 [ARI-055, methyl 2-(5-chloro-1H-indole-3-carbonyl)thiazole-4-carboxylate] | 5.1 | 23 | 135 | 67.3 |  |  |  |  |  |  |  |  | 
CNC(=O)c1csc(C(=O)c2c[nH]c3ccc(F)cc23)n1 [ARI-065, 2-(5-fluoro-1H-indole-3-carbonyl)-N-methylthiazole-4-carboxamide] | 7.1 | 29 | 97.3 | 91 |  |  |  |  |  |  |  |  | lower clearance and EH value
